From patent US7256211B1, “8-azaprostaglandin derivatives and medical use thereof” (ONO Pharmaceutical Co., Ltd., priority 2003, dated 2007)

Target: T1, EP4 receptor (Mus musculus, UniProt P32240)
T1 construct: expressed in transfected cells; host or cells: CHO cells (membrane fraction)
Experiment: Receptor-binding experiment using CHO cell membranes expressing prostanoid receptor sub-types (3H-PGE2 displacement)
Conditions: membrane fraction of CHO cells expressing murine EP4; 3H-PGE2 2.5 nM; Ki=IC50/(1+([C]/Kd))
Protocol: (i) Experiment for Receptor-Binding Using Cells which Express Prostanoid Receptor Sub-Types
According to the method of Sugimoto et al. (J. Biol. Chem., 267, 6463–6466 ([…])), CHO cells which expressed prostanoid receptor sub-types (murine EP1, EP2, EP3α, and EP4 respectively) were prepared and used as membrane authentic samples.
A reaction solution (200 μL) containing the prepared membrane fraction (0.5 mg/ml) and ^3H-PGE2 was incubated at room temperature for an hour. The reaction was terminated with ice cold buffer (3 mL), and the reaction mixture was suction filtrated under reduced pressure through a glass filter (GF/B), on which the binding ^3H-PGE2 was trapped, and the binding radioactivity was measured by means of a liquid scintillator.
The Kd value was obtained from the Scatchard plots (Ann. N.Y. Acad. Sci., 51, 660 (1949)). Non-specific binding was obtained as the binding in the presence of an excess amount (2.5 μM) of unlabelled PGE2. Measurement of the binding inhibition for ^3H-PGE2 with the compounds of the invention was performed by adding ^3H-PGE2 (2.5 nM) and a series of concentrations of the compounds of the invention. In this reaction, the following buffer was used in all cases. • Buffer: 10 mM potassium phosphate (pH6.0), 1 mM EDTA, 10 mM MgCl2 and 0.1M NaCl.
Dissociation constant Ki (μM) of each compounds was calculated from the following equation. […]

T1 sequence (P32240 whole entry): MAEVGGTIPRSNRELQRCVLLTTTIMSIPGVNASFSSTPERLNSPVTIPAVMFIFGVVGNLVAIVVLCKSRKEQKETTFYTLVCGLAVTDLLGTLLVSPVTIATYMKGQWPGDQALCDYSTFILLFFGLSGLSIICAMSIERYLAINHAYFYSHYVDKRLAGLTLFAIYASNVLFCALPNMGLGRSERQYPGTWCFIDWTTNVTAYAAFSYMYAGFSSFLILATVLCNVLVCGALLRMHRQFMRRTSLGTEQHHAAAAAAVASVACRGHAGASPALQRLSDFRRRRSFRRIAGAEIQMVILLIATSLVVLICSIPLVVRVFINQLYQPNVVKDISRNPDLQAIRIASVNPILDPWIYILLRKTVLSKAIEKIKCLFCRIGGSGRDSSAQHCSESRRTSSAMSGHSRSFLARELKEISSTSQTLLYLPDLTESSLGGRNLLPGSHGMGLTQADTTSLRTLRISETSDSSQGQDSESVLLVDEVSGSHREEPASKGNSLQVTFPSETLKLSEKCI

## Cc1cc(C)cc(C[C@H](O)/C=C/[C@H]2CCC(=O)N2CCc2ccc(C(=O)O)cc2)c1 [Example 5, (15α,13E)-1,6-(1,4-interphenylene)-9-oxo-15-hydroxy-16-(3,5-dimethylphenyl)-2,3,4,5,17,18,19,20-octanol-8-azaprost-13-enoic acid]
  Ki: 6.4 nM
